Some test systems named below: 786-0 renal; CCRF-CEM leukemia; EKVX NSCLC; HCC-2998 colon; HL-60(TB) leukemia; HOP-62 NSCLC; K-562 leukemia; LOX IMVI melanoma; M14 melanoma; MALME-3M melanoma; MCF7 breast; MDA-MB-231 breast; MDA-MB-435; MDA-N; OVCAR-5 ovarian; RXF 393 renal; SNB-19 CNS; SW-620 colon; T-47D breast; TK-10 renal.
Experiment in all cases: NCI-60 cell line screen, 48 h

Each structure is given as a SMILES string.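 Exposure lasted 48 hours, with cells grown in 96-well plates and compounds tested at five concentrations. The concentration for full growth arrest is given as TGI.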 Where only a bound is given, the exact number is not on record here.

For the molecule `CN(CC#N)C(=O)Cc1ccc([N+](=O)[O-])cc1`, the TGI with 786-0 renal, with CCRF-CEM leukemia, in the test with EKVX NSCLC, with HCC-2998 colon, in the test with HL-60(TB) leukemia and in the test with HOP-62 NSCLC was > 10 µM each time. The TGI in the test with K-562 leukemia, in the test on LOX IMVI melanoma, in the test with M14 melanoma, in the test on MALME-3M melanoma, with MCF7 breast and in the test with MDA-MB-231 breast was > 10 µM each time. For the same molecule, the TGI in the test with MDA-MB-435, in the test with MDA-N, with OVCAR-5 ovarian, in the test with RXF 393 renal, with SNB-19 CNS and in the test with SW-620 colon was > 10 µM in each case. The TGI in the test with T-47D breast and in the test on TK-10 renal was > 10 µM throughout.

For `CN(NC(=O)c1cccs1)C1=NCCN1`, the TGI in the test on 786-0 renal, in the test on CCRF-CEM leukemia, in the test with EKVX NSCLC, with HCC-2998 colon, with HL-60(TB) leukemia and in the test on HOP-62 NSCLC was > 100 µM each time. In addition, the TGI in the test on K-562 leukemia, in the test on LOX IMVI melanoma, in the test with M14 melanoma, with MALME-3M melanoma, with MCF7 breast and with MDA-MB-231 breast was > 100 µM in each case. Besides, the TGI with MDA-MB-435, in the test with MDA-N, in the test on OVCAR-5 ovarian, with RXF 393 renal, in the test with SNB-19 CNS and with SW-620 colon was > 100 µM in each case. Moreover, the TGI in the test on T-47D breast and with TK-10 renal was > 100 µM in each case.

As for `N#CC(c1ccccc1)N(CCc1ccccc1)C(=O)Oc1ccccc1` (stereo not given), the TGI in the test with 786-0 renal, with CCRF-CEM leukemia, in the test with EKVX NSCLC, in the test with HCC-2998 colon, in the test with HL-60(TB) leukemia and in the test with HOP-62 NSCLC was > 100 µM throughout. The TGI in the test on K-562 leukemia, in the test on LOX IMVI melanoma, with M14 melanoma, in the test with MALME-3M melanoma, in the test with MCF7 breast and in the test on MDA-MB-231 breast was > 100 µM in each case. Besides, the TGI with MDA-MB-435, with MDA-N, in the test with OVCAR-5 ovarian, in the test on RXF 393 renal, in the test with SNB-19 CNS and in the test on SW-620 colon was > 100 µM in each case. For the same molecule, the TGI with T-47D breast and in the test with TK-10 renal was > 100 µM throughout.

Take `CC1C(=O)C23OC[C@@]1(C)C1(O)CC[C@@H](C)[C@]21CC3=O` (stereo not given in full): the TGI in the test on 786-0 renal, with CCRF-CEM leukemia, in the test with EKVX NSCLC, in the test on HCC-2998 colon, with HL-60(TB) leukemia and in the test with HOP-62 NSCLC was > 100 µM throughout. In addition, the TGI in the test on K-562 leukemia, in the test with LOX IMVI melanoma, in the test with M14 melanoma, in the test on MALME-3M melanoma, with MCF7 breast and in the test on MDA-MB-231 breast was > 100 µM each time. The TGI in the test on MDA-MB-435, with MDA-N, in the test on OVCAR-5 ovarian, in the test with RXF 393 renal, in the test on SNB-19 CNS and in the test on SW-620 colon was > 100 µM throughout. Also, the TGI in the test with T-47D breast and in the test with TK-10 renal was > 100 µM in each case.

For `Cc1cc2c(=O)[nH]nc(N)c2c(N)n1`, the TGI with 786-0 renal, with CCRF-CEM leukemia, in the test on EKVX NSCLC, in the test on HCC-2998 colon, in the test with HL-60(TB) leukemia and in the test on HOP-62 NSCLC was > 100 µM each time. The TGI with K-562 leukemia, in the test on LOX IMVI melanoma, in the test with M14 melanoma, with MALME-3M melanoma, with MCF7 breast and in the test on MDA-MB-231 breast was > 100 µM throughout. In addition, the TGI in the test on MDA-MB-435, in the test with MDA-N, in the test on OVCAR-5 ovarian, in the test with RXF 393 renal, with SNB-19 CNS and in the test on SW-620 colon was > 100 µM in each case. The TGI in the test with T-47D breast and in the test with TK-10 renal was > 100 µM in each case.

Turning to `Oc1[nH]c2ccccc2c1N=NC(=S)N1CCCC1`, the TGI is 17.3 µM in the test on 786-0 renal; 6.78 µM in the test on CCRF-CEM leukemia; > 65.3 µM in the test on EKVX NSCLC; 23.6 µM in the test on HCC-2998 colon; 8.83 µM in the test on HL-60(TB) leukemia; 26.2 µM in the test with HOP-62 NSCLC. The TGI was > 42.7 µM in the test with K-562 leukemia; 18.3 µM in the test with LOX IMVI melanoma; 8.44 µM in the test with M14 melanoma; 9.82 µM with MALME-3M melanoma; > 56.6 µM with MCF7 breast; 55.7 µM in the test on MDA-MB-231 breast. Further, the TGI with MDA-MB-435 is 29.5 µM; in the test with MDA-N, 38.8 µM; with OVCAR-5 ovarian, > 82.6 µM; in the test on RXF 393 renal it was 3.55 µM; in the test with SNB-19 CNS, > 43.8 µM; with SW-620 colon, 52.7 µM. The results for the TGI with T-47D breast and in the test with TK-10 renal were 85.1 µM and 36.2 µM, respectively.

As for `c1ccc2c3nnc(c2c1)SCCSCCCSCCS3`, the TGI is > 100 µM with 786-0 renal; > 100 µM in the test on CCRF-CEM leukemia; > 100 µM in the test with EKVX NSCLC; > 100 µM with HCC-2998 colon; > 100 µM in the test with HL-60(TB) leukemia; 70.9 µM in the test on HOP-62 NSCLC. For the same molecule, the TGI in the test with K-562 leukemia was > 100 µM; in the test with LOX IMVI melanoma, > 100 µM; with M14 melanoma it was > 100 µM; with MALME-3M melanoma, 77.3 µM; in the test on MCF7 breast it was > 100 µM; in the test with MDA-MB-231 breast, 86.1 µM. The TGI in the test with MDA-MB-435 is > 100 µM; in the test on MDA-N, > 100 µM; in the test on OVCAR-5 ovarian, > 100 µM; in the test on RXF 393 renal it was 95.7 µM; in the test with SNB-19 CNS it was 76 µM; in the test on SW-620 colon, > 100 µM. In addition, the TGI in the test with T-47D breast and with TK-10 renal was > 100 µM in each case.
